Legend:
Experiment in all cases: Bliss excess, mean over the matrix (fraction); higher = more synergy
[1] = test system: ASH-3 (Thyroid Gland Carcinoma)
Summary of the method: (§1)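 After 24 hours at 37°C and 5% CO2 in 1536-well plates, cells in DMEM/F12 or RPMI plus 10% FBS received two-drug dose matrices for 72 hours. Viability came from CellTiter-Glo 2.0 luminescence and was scaled as inhibition, anchored at 0 by vehicle wells and at 1 by blank wells. Combination Emax is taken as the second-highest inhibition in the matrix, and Bliss excess as the observed combination effect less EA + EB − EA·EB, with EA and EB the single-agent effects.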

[2] = test system: OVISE (Ovarian Carcinoma)
Summary of the method: as §1

[3] = test system: SCC-9 (Oral Cavity Carcinoma)
Summary of the method: as §1

[4] = test system: HuP-T3 (Pancreatic Carcinoma)
Summary of the method: as §1

EW-13 (Ewing's Sarcoma) = test system: EW-13 (Ewing's Sarcoma)
Summary of the method: as §1

IMR-5 (Neuroblastoma) = test system: IMR-5 (Neuroblastoma)
Summary of the method: as §1

BT-20 (Breast Carcinoma) = test system: BT-20 (Breast Carcinoma)
Summary of the method: as §1

[5] = test system: KLE (Endometrial Carcinoma)
Summary of the method: as §1

[6] = test system: LOU-NH91 (Squamous Cell Lung Carcinoma)
Summary of the method: as §1

[7] = test system: LC4-1 (B-Lymphoblastic Leukemia)
Summary of the method: as §1

[8] = test system: EBC-1 (Squamous Cell Lung Carcinoma)
Summary of the method: as §1

[9] = test system: DG-75 (Burkitt's Lymphoma)
Summary of the method: as §1

[10] = test system: NCI-H322M (Lung Adenocarcinoma)
Summary of the method: as §1

[11] = test system: NCI-H2405 (Lung Adenocarcinoma)
Summary of the method: as §1

[12] = test system: OCUB-M (Breast Carcinoma)
Summary of the method: as §1

[13] = test system: SNU-C1 (Colorectal Carcinoma)
Summary of the method: as §1

[14] = test system: KINGS-1 (Low Grade Glioma)
Summary of the method: as §1

[15] = test system: KU-19-19 (Bladder Carcinoma)
Summary of the method: as §1

[16] = test system: H-EMC-SS (Chondrosarcoma)
Summary of the method: as §1

U-87-MG (Glioblastoma) = test system: U-87-MG (Glioblastoma)
Summary of the method: as §1

Structure (SMILES) | Bliss excess [1] | Bliss excess [2] | Bliss excess [3] | Bliss excess [4] | Bliss excess (EW-13 (Ewing's Sarcoma)) | Bliss excess (IMR-5 (Neuroblastoma)) | Bliss excess (BT-20 (Breast Carcinoma)) | Bliss excess [5] | Bliss excess [6] | Bliss excess [7] | Bliss excess [8] | Bliss excess [9] | Bliss excess [10] | Bliss excess [11] | Bliss excess [12] | Bliss excess [13] | Bliss excess [14] | Bliss excess [15] | Bliss excess [16] | Bliss excess (U-87-MG (Glioblastoma))
CC1(C)CCC(CN2CCN(c3ccc(C(=O)NS(=O)(=O)c4ccc(NCC5CCOCC5)c([N+](=O)[O-])c4)c(Oc4cnc5[nH]ccc5c4)c3)CC2)=C(c2ccc(Cl)cc2)C1 [Venetoclax] + C1CN(CCC1(C(=O)N[C@@H](CCO)C2=CC=C(C=C2)Cl)N)C3=NC=NC4=C3C=CN4 [Capivasertib] (first compound max 1 µM, 7x7, partner max 3 µM) | -0.0554 | -0.0059 | -0.0438 | -0.0387 | -0.0302 | -0.0486 | -0.035 | -0.106 | -0.0805 | 0.0227 | -0.0395 | -0.0146 | -0.103 | -0.0418 | -0.0222 | -0.109 | -0.0696 | -0.0465 | -0.0204 | -0.0214
Cc1c2c(nn1C)CSCc1cc(n(C)n1)CSc1cc(c3ccccc3c1)OCCCc1c(C(=O)O)n(C)c3c-2c(Cl)ccc13 [AZD5991] + C[C@@H]1COCCN1C2=NC(=NC(=C2)C3(CC3)[S@](=N)(=O)C)C4=C5C=CNC5=NC=C4 [AZD6738] (first compound max 1 µM, 7x7, partner max 10 µM) | 0.0554 | -0.0118 | 0.0134 | -0.0053 | -0.0056 | 0.0245 | 0.0977 | -0.0021 | 0.0408 | 0.0101 | 0.039 | -0.0464 | 0.0012 | 0.0105 | 0.0339 | -0.0626 | 0.0151 | -0.0013 | 0.0187 | -0.0241
CC1(C)CCC(CN2CCN(c3ccc(C(=O)NS(=O)(=O)c4ccc(NCC5CCOCC5)c([N+](=O)[O-])c4)c(Oc4cnc5[nH]ccc5c4)c3)CC2)=C(c2ccc(Cl)cc2)C1 [Venetoclax] + C[C@@H](Nc1cc(F)cc(F)c1)c1cc(C(=O)N(C)C)cc2c(=O)cc(N3CCOCC3)oc12 [AZD8186] (first compound max 1 µM, 7x7, partner max 3 µM) | -0.0223 | -0.0296 | -0.0222 | -0.0275 | 0.0349 | 0.0793 | -0.0229 | 0.0002 | -0.0647 | 0.0967 | -0.0233 | 0.0255 | -0.0526 | -0.0396 | -0.0082 | -0.0749 | 0.0081 | -0.0402 | -0.0159 | -0.117
NC1(C(=O)N[C@@H](CCO)c2ccc(Cl)cc2)CCN(c2ncnc3[nH]ccc23)CC1 [Capivasertib] + CC(C)n1c(=O)n(C)c2cnc3cc(F)c(-c4ccc(OCCCN5CCCCC5)nc4)cc3c21 [AZD1390] (first compound max 10 µM, 7x7, partner max 0.3 µM) | -0.0478 | -0.042 | -0.027 | -0.0444 | -0.024 | -0.0487 | -0.0315 | -0.0455 | -0.0997 | 0.0461 | -0.0046 | -0.0006 | -0.0166 | -0.0513 | -0.0424 | -0.068 | -0.0398 | -0.0939 | -0.0296 | -0.0703
Cc1c2c(nn1C)CSCc1cc(n(C)n1)CSc1cc(c3ccccc3c1)OCCCc1c(C(=O)O)n(C)c3c-2c(Cl)ccc13 [AZD5991] + Cn1cnc2c(F)c(Nc3ccc(Br)cc3Cl)c(C(=O)NOCCO)cc21 [Selumetinib] (first compound max 1 µM, 7x7, partner max 3 µM) | 0.0175 | -0.0588 | 0.0245 | 0.032 | 0.0215 | -0.0154 | 0.153 | -0.0374 | -0.025 | 0.0467 | -0.0019 | -0.0023 | 0.0308 | 0.0595 | 0.0322 | 0.0034 | -0.0147 | 0.0759 | -0.017 | -0.0073
COc1nnc2ccc(N3CCC(c4ccc(OCCN5CCN(C)C(=O)[C@H]5C)cc4)CC3)nn12 [AZD5153] + C=CCn1c(=O)c2cnc(Nc3ccc(N4CCN(C)CC4)cc3)nc2n1-c1cccc(C(C)(C)O)n1 [AZD1775] (first compound max 1 µM, partner max 1 µM) | -0.024 | -0.0081 | 0.0175 | -0.0521 | -0.0239 | -0.0213 | -0.0856 | -0.0754 | 0.0216 | -0.0018 | 0.005 | -0.0437 | -0.106 | 0.0195 | -0.0224 | -0.0563 | -0.0123 | -0.121 | -0.0488 | -0.119
COc1cc2ncnc(Nc3ccc(F)c(Cl)c3)c2cc1OCCCN1CCOCC1 [Gefitinib] + CC(C)n1c(=O)n(C)c2cnc3cc(F)c(-c4ccc(OCCCN5CCCCC5)nc4)cc3c21 [AZD1390] (first compound max 10 µM, 7x7, partner max 0.3 µM) | -0.0537 | -0.0739 | -0.0309 | -0.0595 | -0.0568 | -0.0516 | -0.047 | -0.0548 | -0.0195 | -0.0408 | -0.0434 | -0.0333 | -0.0312 | -0.0597 | -0.0537 | -0.0507 | -0.0594 | -0.0831 | -0.0502 | -0.0771
COc1nnc2ccc(N3CCC(c4ccc(OCCN5CCN(C)C(=O)[C@H]5C)cc4)CC3)nn12 [AZD5153] + CCN(CCO)CCCOc1ccc2c(Nc3cc(CC(=O)Nc4cccc(F)c4)[nH]n3)ncnc2c1 [AZD2811] (first compound max 1 µM, 7x7, partner max 1 µM) | -0.0284 | -0.017 | -0.0476 | -0.0306 | 0.0251 | -0.0151 | -0.0105 | -0.0704 | -0.0363 | -0.0739 | -0.0274 | 0.0144 | -0.0612 | -0.0102 | -0.133 | -0.0694 | -0.0374 | -0.0741 | -0.0226 | 0.0005
CC1(C)CCC(CN2CCN(c3ccc(C(=O)NS(=O)(=O)c4ccc(NCC5CCOCC5)c([N+](=O)[O-])c4)c(Oc4cnc5[nH]ccc5c4)c3)CC2)=C(c2ccc(Cl)cc2)C1 [Venetoclax] + CCN(CCO)CCCOc1ccc2c(Nc3cc(CC(=O)Nc4cccc(F)c4)[nH]n3)ncnc2c1 [AZD2811] (first compound max 1 µM, 7x7, partner max 1 µM) | -0.0166 | 0.0134 | -0.0214 | -0.0309 | -0.0499 | -0.0014 | -0.0005 | -0.0629 | -0.0477 | 0.0039 | 0.0178 | -0.0104 | -0.0153 | -0.0345 | -0.049 | -0.0321 | -0.0652 | -0.059 | -0.0468 | -0.0009
CC1(C)CCC(CN2CCN(c3ccc(C(=O)NS(=O)(=O)c4ccc(NCC5CCOCC5)c([N+](=O)[O-])c4)c(Oc4cnc5[nH]ccc5c4)c3)CC2)=C(c2ccc(Cl)cc2)C1 [Venetoclax] + C=CCn1c(=O)c2cnc(Nc3ccc(N4CCN(C)CC4)cc3)nc2n1-c1cccc(C(C)(C)O)n1 [AZD1775] (first compound max 1 µM, partner max 1 µM) | -0.0662 | -0.0676 | -0.0451 | -0.112 | -0.0523 | 0.0237 | -0.0076 | -0.0043 | -0.0815 | 0.0355 | 0.0315 | -0.0575 | -0.0173 | -0.0756 | 0.0062 | -0.0136 | 0.0375 | -0.023 | -0.0532 | -0.0456
C[C@@H](c1ccc2nccn2c1)n1nnc2ncc(-c3cnn(C)c3)nc21 [Savolitinib] + Cc1c2c(nn1C)CSCc1cc(n(C)n1)CSc1cc(c3ccccc3c1)OCCCc1c(C(=O)O)n(C)c3c-2c(Cl)ccc13 [AZD5991] (first compound max 1 µM, 7x7, partner max 1 µM) | -0.0466 | -0.0291 | -0.0281 | -0.0526 | -0.0546 | 0.0026 | -0.0135 | -0.0822 | -0.0328 | -0.0133 | 0.0076 | -0.0204 | -0.0638 | -0.0547 | -0.0393 | -0.0558 | 0.0058 | -0.0494 | -0.0081 | -0.0347
NC1(C(=O)N[C@@H](CCO)c2ccc(Cl)cc2)CCN(c2ncnc3[nH]ccc23)CC1 [Capivasertib] + COc1nnc2ccc(N3CCC(c4ccc(OCCN5CCN(C)C(=O)[C@H]5C)cc4)CC3)nn12 [AZD5153] (first compound max 10 µM, 7x7, partner max 1 µM) | 0.0231 | -0.0055 | 0.0627 | -0.0395 | 0.0153 | 0.0285 | 0.0023 | -0.0329 | -0.025 | 0.002 | 0.0374 | -0.0133 | -0.0144 | 0.0138 | 0.0223 | -0.0147 | -0.0017 | 0.0272 | 0.0011 | 0.0526
CN(CCO)CC[C@H](CSc1ccccc1)Nc1ccc(S(=O)(=O)NC(=O)c2ccc(N3CCC([C@@H](O)c4ccccc4-c4ccc(Cl)cc4)CC3)cc2)cc1S(=O)(=O)C(F)(F)F [AZD4320] + C[C@@H](Nc1cc(F)cc(F)c1)c1cc(C(=O)N(C)C)cc2c(=O)cc(N3CCOCC3)oc12 [AZD8186] (first compound max 1 µM, 7x7, partner max 3 µM) | -0.051 | -0.0322 | -0.0094 | 0.038 | -0.015 | 0.0508 | 0.0586 | 0.0304 | -0.0046 | 0.0908 | 0.0576 | 0.0548 | 0.0489 | -0.0239 | 0.0137 | -0.0417 | 0.0959 | 0.0039 | -0.0277 | 0.0472
NC1(C(=O)N[C@@H](CCO)c2ccc(Cl)cc2)CCN(c2ncnc3[nH]ccc23)CC1 [Capivasertib] + CC(=O)c1c(C)c2cnc(Nc3ccc(N4CCNCC4)cn3)nc2n(C2CCCC2)c1=O [Palbociclib] (first compound max 10 µM, 7x7, partner max 10 µM) | -0.0235 | -0.0235 | 0.0004 | -0.0457 | -0.0161 | 0.0514 | -0.0038 | -0.0214 | -0.0617 | 0.0772 | 0.06 | 0.0406 | 0.0072 | -0.0405 | -0.0127 | -0.0506 | 0.0102 | 0.0041 | -0.0375 | -0.0097
